We go through four molecules from patent publication US20100226917A1, “METHODS FOR THE TREATMENT OF HEMATOLOGIC MALIGNANCIES” (AstraZeneca AB, priority 2007, published 2010).

In test [1] the test system is tumor cells isolated from CLL patients. Put plainly: Ex vivo cell viability (Cell Titer-Glo) of mononuclear cells isolated from CLL patient blood. Type of test: cell-based, human. As to conditions: 48 hour treatment; for IC50: Homo sapiens. The protocol:
Blood samples (10 mls) were collected from CLL patients and placed on ice. Whole blood was then diluted with phosphate buffered saline (PBS) (2-3 fold dilution) and carefully layered over 12 mls Ficoll-paque (GE Healthcare, Westborough, Mass.) in a 50 ml conical tube. Samples were then centrifuged at 3500 rpm for 35 minutes without break at room temperature. Plasma was removed and opaque interphase containing mononuclear cells was collected and placed into a clean conical centrifuge tube. Cells were then washed twice with PBS with 1% fetal bovine serum (FBS). Following final wash, cells were resuspended in 5˜10 mls RPMI 1640 (Invitrogen, Grand Island, N.Y.) plus 10% fetal calf serum (FCS) medium. Cells were then counted by Trypan blue exclusion method and viability and purity assessed.
Cells were then plated into 96 well plates (1×10^5 cells/well) and incubated overnight in a drug free medium. The next morning cells were treated with fludarabine (1, 3 and 10 μM), gemcitabine (0.1 and 1 μM), CHK1 inhibitor of Formula 1.1 (0.01, 0.1 and 0.5 μM) or the combination of fludarabine and CHK1 inhibitor or gemcitabine and CHK1 inhibitor. […] Following 48 hour treatment, cell viability was measured using Cell Titer-Glo® luminescent cell viability assay (Promega, Madison, Wis.).
For orientation: In ATP-based viability assays light output follows the ATP content of the culture.

The test system of test [2] is marrow mononuclear cells from patients with acute myelogenous leukemia. The test is described as follows: Colony formation of AML patient marrow mononuclear cells in methylcellulose. Type of test: cell-based, human. As to conditions: 30-300 nM, 48-hour incubation, colonies scored after 14 days, 9 AML patient samples. The protocol:
Marrow mononuclear cells from 9 patients with acute myelogenous leukemia were isolated by sedimentation on Ficoll-Hypaque density gradients (English et al. Single-Step Separation of Red Blood Cells. Granulocytes and Mononuclear Leukocytes on Discontinuous Density Gradients of Ficoll-Hypaque. Journal of Immunological Methods, 5: 249-252, 1974). After removal of an aliquot for staining to determine the percentage of blasts, replicate aliquots containing 1×10^6 cells in 1 ml Improved Dulbecco's Medium containing 20% heat-inactivated fetal bovine serum, 50 units/ml penicillin G, 50 μg/ml streptomycin and 2 mM glutamine (medium A) were treated with diluent (0.2% dimethyl sulfoxide), increasing concentrations of cytarabine alone (25-300 nM), increasing concentrations of a CHK-1 inhibitor (formula 1.1) (30-300 nM), or increasing concentrations of cytarabine in the presence of 100 nM of a CHK-1 inhibitor (Formula 1.1). […] Following a 14-day incubation at 37° C., colonies containing ≧50 cells were scored on an inverted microscope using established criteria (Eaves, C. and Lambie, K. Atlas of human hematopoietic colonies. Vancouver: StemCell Technologies Inc., 1995). […]

Test [3] relates to JVM2 chronic B cell leukemia cell line. The test is described as follows: Cell Titer-Glo luminescent cell viability assay, JVM2 cell line. Type of test: cell-based. As to conditions: Homo sapiens, JVM-2; JVM2, 48 hour treatment. The protocol: (§1) Chronic B cell leukemia cell lines (JVM2 and Mec1) (American Type Culture Collection (ATCC), Manassas, Va.) were plated in 96 well plates and 24 hours later were treated with increasing concentrations of a CHK1 inhibitor (Formula 1.1). Following 48 hour treatment cell viability was measured using Cell Titer-Glo® luminescent cell viability assay (Promega, Madison, Wis.).

The test system of test [4] is Mec1 chronic B cell leukemia cell line. The test is described as follows: Cell Titer-Glo luminescent cell viability assay, Mec1 cell line. Type of test: cell-based. Particulars: Homo sapiens; Mec1, 48 hour treatment. The protocol:
as §1

For another test, the target named is T1, CD20 antigen (Homo sapiens, UniProt P11836).
T1 sequence (P11836 1-297): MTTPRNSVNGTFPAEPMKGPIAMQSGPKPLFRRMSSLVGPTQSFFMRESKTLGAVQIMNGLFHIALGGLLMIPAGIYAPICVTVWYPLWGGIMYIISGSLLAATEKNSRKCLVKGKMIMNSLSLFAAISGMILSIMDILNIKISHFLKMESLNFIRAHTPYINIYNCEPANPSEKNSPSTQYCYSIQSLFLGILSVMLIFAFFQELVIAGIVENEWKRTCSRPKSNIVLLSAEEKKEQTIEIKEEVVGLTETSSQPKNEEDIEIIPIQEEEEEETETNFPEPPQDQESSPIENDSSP
Particulars: read-out: binding affinity; cited from earlier work.

Where [5] appears, read: relapsed patient who one week prior received rituximab treatment.
The mark [6] stands for this setting: newly diagnosed patient who had not received previous treatment.

For `NC(=O)Nc1cc(-c2cccc(F)c2)sc1C(=O)N[C@H]1CCCNC1` [Formula 1.1, 5-(3-Fluoro-phenyl)-3-ureido-thiophene-2-carboxylic acid (S)-piperidin-3-ylamide], the IC50 in test [1] (setting [5]) was 11 nM. For the same molecule, the “response (cell viability)” value in test [1] (setting [6]) is “not”. The “samples showing single agent sensitivity” value in test [2] is listed as “Four out of nine samples”. Further, the figures for the 50% growth inhibitory concentration (GI50) in test [3] and in test [4] were 13 nM and 79 nM, respectively.
Turning to `Nc1nc(F)nc2c1ncn2[C@@H]1O[C@H](CO)[C@@H](O)[C@@H]1O` [fludarabine], the IC50 in test [1] (setting [6]) was 560 nM; in test [1] (setting [5]) it was 5100 nM.
As for `Nc1ccn([C@@H]2O[C@H](CO)[C@@H](O)C2(F)F)c(=O)n1` [gemcitabine], the “response (cell viability)” value in test [1] (setting [6]) and in test [1] (setting [5]) was “not” each time.
Take rituximab: the Kd in the test with CD20 antigen was approximately 8 nM.

By IC50 is commonly meant the concentration that gives 50% inhibition. The term GI50 denotes the concentration giving 50% growth inhibition. A high value points to less potent growth inhibition.
